Laboratory results as given in patent US12129265B2, “Therapeutic agents and uses thereof” (Ankh Life Sciences Limited, priority 2020, dated 2024).
pIC50: −log10 of the molar value.

How the values were obtained:
Test in all cases: CellTiter-Glo in vitro cell proliferation assay, Example 8
Type in all cases: cell-based, Human
JIM1 cells = conditions: JIM1, HMCL; read-out: Mean IC50
Description: (§1) In this Example, in vitro cell proliferation assays were performed using: (1) Human Myeloma tumor cell lines; (2) Human Lymphoma tumor cell lines; (3) Solid Human tumor cell lines; and (4) Parental, Lenalidomide resistant and Bortezomib resistant Jeko-1 Mantle cell Lymphoma tumor cell lines. The compounds tested were three diharmaline compounds, namely the 518B562 (or simply 562), 560, and 561 compounds. In addition, a monoharmaline product designated as 518F014 was also tested. This monoharmaline product had the following structure:
(§2) Each proliferation assay was carried out as follows. The test cells were plated in growth media using a 384-well microtiter plate at 50 μL volume. The cells were incubated for 24 hours at 37° C. in a humidified incubator. After 24 hours of incubation, the test compounds were added to the test wells in DSMO solvent, at concentrations ranging from 0.0075-100 μM. Control wells received equal volumes of DSMO, without compound. Following drugging, the cells were incubated for 72 hours at 37° C. in a humidified incubator. After this exposure, 100 μL of a 1:1 mixture of sterile water and CellTiter-Glo® reagent (Promega) was added to each well. The plates were then incubated for 60 minutes at room temperature, followed by recording the luminescence value of each well using a luminometer as a measure of cell proliferation.

H1650 (EGFR mut) cells = conditions: NSCLC, read-out: Mean IC50
Description: as §1, §2

A2780 cells = conditions: A2780, Ovarian; read-out: Mean IC50
Description: as §1, §2

AN3CA cells = conditions: Endometrial, read-out: Mean IC50
Description: as §1, §2

MOLP-8 cells = conditions: MOLP-8, MM IgD; read-out: Mean IC50
Description: as §1, §2

KMM-1 cells = conditions: KMM-1, HMCL-A; read-out: Mean IC50
Description: as §1, §2

MIA PaCa-2 cells = conditions: MIA PaCa-2, Pancreatic; read-out: Mean IC50
Description: as §1, §2

KMS-34 cells = conditions: KMS-34, HMCL-B; read-out: Mean IC50
Description: as §1, §2

MDA-MB-231 cells = conditions: MDA-MB-231, TNBC; read-out: Mean IC50
Description: as §1, §2

BxPC-3 cells = conditions: BxPC-3, Pancreatic; read-out: Mean IC50
Description: as §1, §2

SiHA cells = conditions: Cervical - SC, read-out: Mean IC50
Description: as §1, §2

FaDu cells = conditions: H&N - SC, read-out: Mean IC50
Description: as §1, §2

HEC-1a cells = conditions: Endometrial, read-out: Mean IC50
Description: as §1, §2

A2780CP cells = conditions: Ovarian, read-out: Mean IC50
Description: as §1, §2

OCI-LY3 cells = conditions: OCI-LY3, ABC-DLBCL; read-out: Mean IC50
Description: as §1, §2

H1975 (EGFR mut) cells = conditions: NSCLC, read-out: Mean IC50
Description: as §1, §2

L363 cells = conditions: L363, PCL/MM; read-out: Mean IC50
Description: as §1, §2

ASPC-1 cells = conditions: ASPC-1, Pancreatic; read-out: Mean IC50
Description: as §1, §2

MDA-MB-468 cells = conditions: MDA-MB-468, TNBC; read-out: Mean IC50
Description: as §1, §2

A498 cells = conditions: A498, RCC; read-out: Mean IC50
Description: as §1, §2

DOHH-2 cells = conditions: DoHH-2, GCB-DLBCL; read-out: Mean IC50
Description: as §1, §2

HCC70 cells = conditions: HCC70, TNBC; read-out: Mean IC50
Description: as §1, §2

RPMI-8226 cells = conditions: RPMI-8226, HMM
Description: as §2
In this example, different cell lines were subjected to in vitro cell proliferation assays as described in Example 8. In particular, the cell lines are identified in the following Table 17, and the tissue types were: Pancreatic; Endometrial; Triple-Negative Breast Cancer (TNBC); Non-Small-Cell Lung Carcinoma (NSCLC); Ovarian; Renal Cell Carcinoma (RCC); Cervical-Squamous Cell; […] (H&N-Squamous Cell); Germinal Center B Cell-Like Novo Diffuse Large B-Cell Lymphoma (GCB-DLBCL); Activated B-Cell—Diffuse Large B Cell Lymphoma (ABC-DLBCL); Human Myeloma; Human Myeloma Cell Line Lymphocyte-Like; Human Myeloma Cell Line Lymphocyte-Like Myeloma Pleural Effusion Infiltration; Human Multiple Myeloma; Plasma Cell Leukemia/Multiple Myeloma Epstein-Barr Nuclear Antigen-Negative (EBNA-Negative) and to Express mRNA for Proto-Oncogene B-Cell Lymphoma 2 (BCL2); Multiple Myeloma from Peripheral Blood Type IgD Lmabda.

| SMILES | pIC50 (JIM1 cells) | pIC50 (H1650 (EGFR mut) cells) | pIC50 (A2780 cells) | pIC50 (AN3CA cells) | pIC50 (MOLP-8 cells) | pIC50 (KMM-1 cells) | pIC50 (MIA PaCa-2 cells) | pIC50 (KMS-34 cells) | pIC50 (MDA-MB-231 cells) | pIC50 (BxPC-3 cells) | pIC50 (SiHA cells) | pIC50 (FaDu cells) | pIC50 (HEC-1a cells) | pIC50 (A2780CP cells) | pIC50 (OCI-LY3 cells) | pIC50 (H1975 (EGFR mut) cells) | pIC50 (L363 cells) | pIC50 (ASPC-1 cells) | pIC50 (MDA-MB-468 cells) | pIC50 (A498 cells) | also measured |
| --- | --- | --- | --- | --- | --- | --- | --- | --- | --- | --- | --- | --- | --- | --- | --- | --- | --- | --- | --- | --- | --- |
| COc1ccc2c3c([nH]c2c1)C(CC(CC1=NCCc2c1[nH]c1cc(OC)ccc21)c1ccc(Cl)cc1)=NCC3 [compound 27] | 4.94 | 4.95 | 5.09 | 5.36 | 5.40 | 5.14 | 5.23 | 5.35 | 5.13 | 5.34 | 4.94 | 4.95 | 4.93 | 4.95 | 5.03 | 4.94 | 5.11 | 5.13 | 4.97 | 4.93 | pIC50 (DOHH-2 cells): 5.60; pIC50 (HCC70 cells): 4.94; pIC50 (RPMI-8226 cells): 5.49 |
| COc1cccc(C(CC2=NCCc3c2[nH]c2cc(OC)ccc32)CC2=NCCc3c2[nH]c2cc(OC)ccc32)c1 [compound 15] | 5.20 | 5.02 | 5.07 | 5.46 | 5.50 | 5.13 | 5.44 | 5.46 | 5.17 | 5.37 | 4.91 | 5.18 | 4.88 | 5.12 | 5.20 | 4.92 | 5.18 | 5.26 | 5.17 | 4.82 | pIC50 (DOHH-2 cells): 5.30; pIC50 (HCC70 cells): 4.93; pIC50 (RPMI-8226 cells): 5.53 |
| COc1ccc2c3c([nH]c2c1)C(CC(CC1=NCCc2c1[nH]c1cc(OC)ccc21)C1CCCCC1)=NCC3 [compound 30] | 5.15 | 4.78 | 5.19 | 5.30 | 5.57 | 5.24 | 5.26 | 5.32 | 4.96 | 5.11 | 4.75 | 5.17 | 5.00 | 5.07 | 5.14 | 4.94 | 5.25 | 4.96 | 5.13 | 4.77 | pIC50 (DOHH-2 cells): 5.27; pIC50 (HCC70 cells): 4.73; pIC50 (RPMI-8226 cells): 5.37 |
